Data reported in ChEMBL document CHEMBL1201862, “PubChem BioAssay data set” (2004).
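Growth conditions: 96-well plates. Treatment: test compound, 48 hours, 5 concentrations. Analysis: linear interpolation between bracketing concentrations; unreached endpoints set to highest concentration. GI50: concentration for 50% inhibition of growth.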 Activity calls are given as the source filed them. Cut-off read from the data, not from the text of the source: active = GI50 up to about 1.1 µM and inactive = higher.

Assays:
Experiment in all cases: growth of human tumour cells (NCI), 48 h
KM-20L2 = test system: KM-20L2
SNB-78 = test system: SNB-78
M19-MEL = test system: M19-MEL
DMS-273 = test system: DMS-273
DLD-1 = test system: DLD-1
DMS-114 = test system: DMS-114
HOP-18 = test system: HOP-18
XF498 = test system: XF498
RXF 631 = test system: RXF 631

| Compound | GI50 (KM-20L2) | GI50 (SNB-78) | GI50 (M19-MEL) | GI50 (DMS-273) | GI50 (DLD-1) | GI50 (DMS-114) | GI50 (HOP-18) | GI50 (XF498) | GI50 (RXF 631) |
| --- | --- | --- | --- | --- | --- | --- | --- | --- | --- |
| Cc1ccc(/C=C/C(=O)CCN(C)C)cc1 | 18.3 µM (inactive) | 28.6 µM (inactive) | 19.7 µM (inactive) | 13 µM (inactive) | 18.1 µM (inactive) | 18.3 µM (inactive) | 20.7 µM (inactive) | 14.2 µM (inactive) | – |
| CC(C)(c1ccccc1)c1ccc(OC#N)cc1 | > 60.3 µM (inactive) | > 100 µM (inactive) | > 60.1 µM (inactive) | 17 µM (inactive) | > 44.5 µM (inactive) | 28.4 µM (inactive) | > 100 µM (inactive) | 44.6 µM (inactive) | – |
| O=C1C(=Cc2ccc([N+](=O)[O-])o2)C(=O)N(CCc2ccccc2)S(=O)(=O)N1CCc1ccccc1 | > 100 µM (inactive) | 26.1 µM (inactive) | 17.7 µM (inactive) | 32.7 µM (inactive) | 17.6 µM (inactive) | – | 42.2 µM (inactive) | 20.4 µM (inactive) | – |
| CN1N=C2NCCNC3=NN(C)/C(=N/CC/N=C/1S2)S3 | > 100 µM (inactive) | > 100 µM (inactive) | > 100 µM (inactive) | > 100 µM (inactive) | > 100 µM (inactive) | – | > 100 µM (inactive) | – | – |
| O=C1c2ccccc2C2CCC1c1ccccc12 (configuration not stated) | 32.8 µM (inactive) | 29.9 µM (inactive) | 25.6 µM (inactive) | 27.4 µM (inactive) | 33.5 µM (inactive) | 19.4 µM (inactive) | 73.6 µM (inactive) | 29.5 µM (inactive) | – |
| CC(C)Cc1cc(CCC(=O)Nc2ccccc2[N+](=O)[O-])nc(NC#N)n1 | > 100 µM (inactive) | – | > 100 µM (inactive) | – | > 100 µM (inactive) | > 100 µM (inactive) | > 100 µM (inactive) | > 100 µM (inactive) | – |
| COC(=O)C(C#N)=C1c2ccccc2Oc2ccccc21 | 91.2 µM (inactive) | 28.6 µM (inactive) | 60.1 µM (inactive) | > 100 µM (inactive) | > 100 µM (inactive) | 32.7 µM (inactive) | – | > 100 µM (inactive) | – |
| CCN(CC)CCC1CC/C(=C\c2ccc(OC)cc2)C1=O (configuration not stated) | 30.3 µM (inactive) | 81.1 µM (inactive) | 54.8 µM (inactive) | > 100 µM (inactive) | > 100 µM (inactive) | 38.6 µM (inactive) | > 100 µM (inactive) | 49.8 µM (inactive) | – |
| COc1cccc2c1C(=O)c1c(O)c3c(c(O)c1C2=O)C[C@@](O)(C(C)=O)C[C@@H]3OC1CC([N+]([O-])(Cc2ccccc2)Cc2ccccc2)C(O)C(C)O1 (some centres not stated) | 1.55 µM (inactive) | – | 1.43 µM (inactive) | – | 1.29 µM (inactive) | 1.33 µM (inactive) | 1.58 µM (inactive) | 1.23 µM (inactive) | 0.428 µM (active) |
| NC(=O)CC(N/C=C1/N=C(c2ccccc2)OC1=O)C(=O)O (configuration not stated) | > 100 µM (inactive) | > 100 µM (inactive) | > 100 µM (inactive) | > 100 µM (inactive) | > 100 µM (inactive) | > 100 µM (inactive) | > 100 µM (inactive) | – | > 100 µM (inactive) |
| C=C[C@@]1(O)CCCC2=C(C(=O)OCC)CC[C@]21C | – | – | > 100 µM (inactive) | 37.5 µM (inactive) | > 100 µM (inactive) | 44 µM (inactive) | 99.8 µM (inactive) | – | – |
| COc1cc2c(cc1O)[C@@]1(Cc3ccc(OC)c(OC)c3)CCC(=O)N1CC2 | > 100 µM (inactive) | > 100 µM (inactive) | > 100 µM (inactive) | > 100 µM (inactive) | > 100 µM (inactive) | > 100 µM (inactive) | 31.3 µM (inactive) | – | – |
| O=c1ccn([C@@H]2C[C@H](CO)C[S+]([O-])C2)c(=O)[nH]1 (some centres not stated) | > 100 µM (inactive) | – | > 100 µM (inactive) | > 100 µM (inactive) | > 100 µM (inactive) | > 100 µM (inactive) | > 100 µM (inactive) | – | – |
| Cc1cc(C)c(C2[C@H]3C(=O)N(c4ccc(Cc5ccc(N6C(=O)[C@@H]7ON(c8ccccc8)C(c8c(C)cc(C)cc8C)[C@@H]7C6=O)cc5)cc4)C(=O)[C@H]3ON2c2ccccc2)c(C)c1 (some centres not stated) | > 100 µM (inactive) | > 100 µM (inactive) | > 100 µM (inactive) | > 100 µM (inactive) | > 100 µM (inactive) | > 100 µM (inactive) | > 100 µM (inactive) | – | > 100 µM (inactive) |
| CN(CCCCN)c1ccc2c(=O)[nH][nH]c(=O)c2c1 | – | > 100 µM (inactive) | – | > 100 µM (inactive) | > 100 µM (inactive) | > 100 µM (inactive) | > 100 µM (inactive) | > 100 µM (inactive) | > 10 µM (inactive) |
| O=C1c2ccccc2C(=O)c2c1cc(S(=O)(=O)O)c(O)c2O [Alizarin Red S] | – | > 100 µM (inactive) | > 100 µM (inactive) | – | > 100 µM (inactive) | > 100 µM (inactive) | – | 16.7 µM (inactive) | > 100 µM (inactive) |
| COc1cc(C)c(O)c(C(=O)O)c1 | > 100 µM (inactive) | > 100 µM (inactive) | > 100 µM (inactive) | > 100 µM (inactive) | > 100 µM (inactive) | > 100 µM (inactive) | > 100 µM (inactive) | > 100 µM (inactive) | – |
| CN1C(=O)C(=O)c2cc3c(c4c2c1cc1ccccc14)OCO3 [CEPHARADIONE A] | 39.4 µM (inactive) | 7.83 µM (inactive) | 28.4 µM (inactive) | 22.9 µM (inactive) | 31.2 µM (inactive) | 31.6 µM (inactive) | 42.9 µM (inactive) | > 100 µM (inactive) | – |
| C[C@]1(CO)CCC[C@@]2(C)C1CC[C@H]1CC3C[C@]12CC[C@]3(C)O (some centres not stated) | > 100 µM (inactive) | 27.1 µM (inactive) | – | > 100 µM (inactive) | 32.4 µM (inactive) | 40.2 µM (inactive) | – | 47.1 µM (inactive) | 42.3 µM (inactive) |
| C=CC1(NS(=O)(=O)c2ccc(C)cc2)CCC(C(C)(C)C)CC1 (configuration not stated) | > 100 µM (inactive) | 30.7 µM (inactive) | > 100 µM (inactive) | 43.5 µM (inactive) | > 100 µM (inactive) | 27 µM (inactive) | 37.5 µM (inactive) | – | – |
| CC1CCN(CCC(=O)CC(c2ccccc2)c2c(O)c3ccccc3oc2=O)CC1 (configuration not stated) | > 100 µM (inactive) | 34.4 µM (inactive) | > 100 µM (inactive) | > 100 µM (inactive) | > 100 µM (inactive) | > 100 µM (inactive) | – | > 100 µM (inactive) | > 100 µM (inactive) |
| CCOC(=O)Oc1c(OC)cc(C(=O)NC2CCc3cc(OC)c(OC)c(OC)c3-c3ccc(SC)c(=O)cc32)cc1OC (configuration not stated) | 0.0853 µM (active) | 0.0489 µM (active) | 0.047 µM (active) | < 0.007 µM (active) | 0.0723 µM (active) | 0.0261 µM (active) | – | 0.0681 µM (active) | – |
| O=C1CCCN(c2ccccc2)N1 | > 100 µM (inactive) | – | > 100 µM (inactive) | > 100 µM (inactive) | – | > 100 µM (inactive) | – | – | > 100 µM (inactive) |
| Cc1nc(N)sc1C(=O)/C=C\c1ccc2c(c1)OCO2 | > 100 µM (inactive) | > 100 µM (inactive) | > 100 µM (inactive) | > 100 µM (inactive) | > 100 µM (inactive) | > 100 µM (inactive) | > 100 µM (inactive) | > 100 µM (inactive) | > 100 µM (inactive) |
| COc1cc([C@@H]2c3cc4c(cc3C(N)C3COC(=O)[C@@H]32)OCO4)cc(OC)c1O (some centres not stated) | 0.176 µM (active) | – | 0.334 µM (active) | – | 0.377 µM (active) | 0.245 µM (active) | > 100 µM (inactive) | – | 0.178 µM (active) |
